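Results reflect a 48-hour exposure of cells in 96-well plates to compound at five concentrations. The concentration for 50% growth inhibition is given as GI50. At the TGI there is no net growth.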
Tests used:
Assay in all cases: inhibition of tumour cell growth, NCI panel, 48 h
SF-295 CNS = system: SF-295 CNS
NCI-H226 lung = system: NCI-H226 lung
OVCAR-8 ovarian = system: OVCAR-8 ovarian
OVCAR-4 ovarian = system: OVCAR-4 ovarian
SW-620 colon = system: SW-620 colon
SNB-75 CNS = system: SNB-75 CNS
SF-268 CNS = system: SF-268 CNS
HL-60(TB) leukemia = system: HL-60(TB) leukemia
HCT-116 colon = system: HCT-116 colon
UACC-257 melanoma = system: UACC-257 melanoma
RXF 393 renal = system: RXF 393 renal
MALME-3M melanoma = system: MALME-3M melanoma

Row | Compound | TGI (SF-295 CNS) | TGI (NCI-H226 lung) | TGI (OVCAR-8 ovarian) | TGI (OVCAR-4 ovarian) | TGI (SW-620 colon) | TGI (SNB-75 CNS) | TGI (SF-268 CNS) | TGI (HL-60(TB) leukemia) | TGI (HCT-116 colon) | TGI (UACC-257 melanoma) | GI50 (RXF 393 renal) | GI50 (OVCAR-4 ovarian) | GI50 (SW-620 colon) | GI50 (SF-268 CNS) | GI50 (MALME-3M melanoma) | TGI (MALME-3M melanoma) | GI50 (HL-60(TB) leukemia) | TGI (RXF 393 renal)
1 | Nc1ccn(C2C=C(CO)C(O)C2O)c(=O)c1 (configuration not stated) | > 625 µM | > 625 µM | > 625 µM | > 625 µM | > 625 µM | > 625 µM | > 625 µM | > 625 µM | > 625 µM | – | – | – | – | – | – | – | – | –
2 | O=C(Nc1nc2ccc([N+](=O)[O-])cc2s1)C(=O)C(C(=O)c1ccccc1F)C1OC(=O)c2ccccc21 (configuration not stated) | > 100 µM | – | > 100 µM | > 100 µM | > 100 µM | 74.5 µM | > 100 µM | 51.2 µM | > 100 µM | > 100 µM | – | – | – | – | – | – | – | –
3 | CCN(CC)c1ccc2cc(C(=O)Nc3ccc4[nH]c(C(=O)N5C[C@@H](CCl)c6c5cc(OC(=O)Nc5ccccc5)c5[nH]cc(C)c65)cc4c3)oc2c1 | – | – | > 1000 µM | > 1000 µM | > 1000 µM | > 1000 µM | 742 µM | 624 µM | 378 µM | > 1000 µM | 202 µM | 428 µM | 207 µM | 133 µM | 510 µM | > 1000 µM | 125 µM | –
4 | N#C[C@H](OC1OC(COC2OC(CO)C(O)C(O)C2O)C(O)C(O)C1O)c1ccccc1 (some centres not stated) | > 250 µM | > 250 µM | > 250 µM | > 250 µM | > 250 µM | > 250 µM | > 250 µM | > 141 µM | > 250 µM | > 250 µM | – | – | – | – | – | > 250 µM | > 141 µM | > 250 µM
5 | O=c1ssc(=Nc2ccccc2)n1-c1ccccc1 | > 100 µM | 46.5 µM | 32.7 µM | 33.2 µM | 51.8 µM | > 100 µM | 37.1 µM | 96.2 µM | – | 38.9 µM | – | – | – | – | – | > 100 µM | – | –
6 | CCCCn1c(N)c(-c2nc3ccccc3o2)sc1=S | 28.9 µM | 43.1 µM | 37.7 µM | 19.9 µM | – | – | 74.4 µM | > 100 µM | 24.6 µM | > 100 µM | – | – | – | – | – | 40.2 µM | – | > 100 µM
7 | Cn1c(=O)c2[nH]c(CCNC(=O)c3ccccc3)nc2n(C)c1=O | > 100 µM | > 100 µM | > 100 µM | > 100 µM | > 100 µM | > 100 µM | > 100 µM | – | > 100 µM | > 100 µM | – | – | – | – | – | > 100 µM | – | > 100 µM
8 | Cc1ccc(C2OC(COCc3ccc(Cl)cc3)C(OCc3ccc(Cl)cc3)C2O)cc1 (configuration not stated) | 32 µM | 38.5 µM | 36.9 µM | 40.9 µM | 49.5 µM | – | – | – | > 100 µM | 43.1 µM | – | – | – | – | – | – | – | 10.8 µM
9 | C[N+](C)(C)CCc1ccccc1 | > 100 µM | > 100 µM | > 100 µM | > 100 µM | > 100 µM | > 100 µM | > 100 µM | > 100 µM | > 100 µM | > 100 µM | – | – | – | – | – | > 100 µM | – | > 100 µM

— PubChem BioAssay (NCI)
